Tests used:
Monocytes = test: FITC-PIF binding to mare immune cells, flow cytometry, monocytes; type: cell-based
From the text: (§1) Method: whole blood was collected from jugular vein of pregnant (n=4) and non-pregnant (n=8) mares into lithium heparin vacutainers. Whole blood was layered over histopaque (Sigma) density gradient and red cells were allowed to settle through the gradient, leaving a leukocyte-rich plasma layer above. Cells were washed twice in sterile PBS and any remaining RBCs lysed with 0.16 M ammonium chloride solution. […] Cell types were separated based upon their scatter characteristics. […] FIG. 20 and Table 20 show mean+/−SEM in both pregnant and non-pregnant mares, and depicts binding characteristics showing significant differences between FITC-PIF and control, P<0.001.

[1] = system: PBMCs (CD3+, CD4+/CD25+/FoxP3+, CD8+/CD25+ cells); test: FITC-PIF binding to naive T-cell subsets of PBMCs, two- and three-color flow cytometry; type: cell-based, human
Granulocytes = test: FITC-PIF binding to mare immune cells, flow cytometry, granulocytes; type: cell-based
From the text: as §1

Lymphocytes = test: FITC-PIF binding to mare immune cells, flow cytometry, lymphocytes; type: cell-based
From the text: as §1

Sequence: GRVDPSNKSMPKDIA [PIFscr, scrambled PIF, control peptide]
- binding to Monocytes, Mean (Monocytes; Non-pregnant mares, 1 ug/ml): 1.10
- binding to Monocytes, Mean (Monocytes; Non-pregnant mares, 5 ug/ml): 5.20
- binding to Monocytes, Mean (Monocytes; Pregnant mares, 1 ug/ml): 0.78
- binding to CD4+/CD25+/FoxP3+ cells ([1]; 0-100 uM): minimal binding
- binding to CD3+/CD4+ cells ([1]; FIG. 10A): not replicated
- binding to Granulocytes, Mean (Granulocytes; Non-pregnant mares, 1 ug/ml): 0.26
- binding to Granulocytes, Mean (Granulocytes; Pregnant mares, 1 ug/ml): 0.09
- binding to Granulocytes, Mean (Granulocytes; Pregnant mares, 5 ug/ml): 0.93
- binding to Lymphocytes, Mean (Lymphocytes; Non-pregnant mares, 1 ug/ml): 0.27
- binding to Lymphocytes, Mean (Lymphocytes; Pregnant mares, 1 ug/ml): 0.12
- binding to Lymphocytes, Mean (Lymphocytes; Pregnant mares, 5 ug/ml): 0.78

From patent publication US20230013244A1 (BioIncept, LLC, priority 2014, published 2023)
